Measurements from article PMC5707067, “Farnesyl phenolic enantiomers as natural MTH1 inhibitors from Ganoderma sinense” (Oncotarget, 2017).

Tests used:
[1] = system: human colorectal carcinoma cells (SW620); test: CCK8 cytotoxicity assay, SW620; format: cell-based; details: CCK8, 48 h, carcinoma cell line
Source text: (§1) The growth inhibitory effects of the isolated farnesyl phenolic compounds (1–8) against carcinoma cell lines [human osteosarcoma cells (U2OS), human colorectal carcinoma cells (SW620), human ES-2 ovarian carcinoma cells (ES-2)] and normal tissue cell lines [human hepatic cells (Lo2), African green monkey kidney vero cells (Vero)] were further investigated using CCK8 assay method (Table 3).
(§2) Carcinoma cell lines [human osteosarcoma cells (U2OS), human colorectal carcinoma cells (SW620), human ES-2 ovarian carcinoma cells (ES-2)] and normal tissue cell lines [human hepatic cells (Lo2), African green monkey kidney Vero cells (Vero)] The U2OS, SW620, ES-2, Lo2 and Vero were obtained from ATCC (Manassas, VA, USA). The SW620 and Vero cells were cultured in Roswell Park Memorial Institute medium (RPMI), with 10% fetal bovine serum (Hyclone) and 1% penicillin-streptomycin (Sigma). Lo2, U2OS and ES-2 cells were grown in Dulbecco's modified eagle medium (DMEM), with 10% fetal bovine serum (Hyclone) and 1% penicillin-streptomycin (Sigma). All of these cells were cultured at 37°C in a humidified atmosphere with 5% CO2. For CCK8 assay cytotoxicity evaluation of compounds, all cells were separately plated at a density of 1 × 10^4 cells/well in a 96 well plate. Cells were cultivated at 37°C in 5% CO2 atmosphere for 24 h, then medium in the wells was replaced with fresh medium containing compounds which were diluted in 8 dilution steps covering the range from 200 μM to 1.5625 μM. And DMSO was used as negative control. After 48 h incubation, 10 μL of CCK8 solution was added to each well. After 30 min, the optical density (OD) of each well was measured at wavelength of 450 nm on spectrophotometer. Data were corrected for background (no-cell control) and expressed as a percentage of the value for untreated cells. The IC50 values of the isolated compounds were derived from the mean OD values of the triplicate tests versus the drug concentration curves.

[2] = system: African green monkey kidney vero cells (Vero); test: CCK8 cytotoxicity assay, Vero; format: cell-based; details: CCK8, 48 h, normal tissue cell line
Source text: as §1, §2

[3] = system: human osteosarcoma cells (U2OS); test: CCK8 cytotoxicity assay, U2OS; format: cell-based; details: CCK8, 48 h, carcinoma cell line
Source text: as §1, §2

[4] = system: human ES-2 ovarian carcinoma cells (ES-2); test: CCK8 cytotoxicity assay, ES-2; format: cell-based; details: CCK8, 48 h, carcinoma cell line
Source text: as §1, §2

[5] = system: human hepatic cells (Lo2); test: CCK8 cytotoxicity assay, Lo2; format: cell-based; details: CCK8, 48 h, normal tissue cell line
Source text: as §1, §2

[6] = CCK8 cytotoxicity assay, Vero; format: cell-based, African green monkey; details: African green monkey, Vero kidney cells (normal tissue cell line), CCK8, 48 h
Source text: as §1, §2

MTH1 [7] = target: T1, MTH1 (Homo sapiens, UniProt P36639); test: Enzyme inhibition assay (8-oxo-dGTP hydrolysis, HPLC); format: biochemical; design: hexa-histidine (His6) (N, cleaved yes); made in house; host or cells: E. coli BL21 Star; details: 8-oxo-dGTP 25 μM, purified MTH1
Procedure: Microscale thermophoresis method (MST) was employed to assay the binding affinity between the compounds and MTH1. This technology can quantify protein-protein interactions or protein-small molecule interactions with high sensitivity through detecting fluorescent changes of molecules during thermophoresis.
To identify the efficacy of the eight compounds, an enzyme inhibition assay was carried out. […] Then the reaction was stop by the addition of 20 μL ice-cold Na2EDTA (50 mM). The reaction mixture was centrifugated at 15000 rpm at 4°C for 10 min. 20 μL of supernatant was injected on an HPLC column (Ultimate AQ-C18 RP-18e, 250 mm × 4.6 mm × 5 μm), and eluted isolate with 100 mM Na2HPO4-NaOH (pH 5.5)/MeOH 95:5 with flow rate 1 mL/min at column room of 30°C. […] Measurements were done in triplet, and IC50 values were calculated to compare the efficiency of various compounds.

[8] = CCK8 cytotoxicity assay, Lo2; format: cell-based, human; details: human, Lo2 human hepatic cells (normal tissue cell line), CCK8, 48 h
Source text: as §1, §2

MTH1 [9] = target: T1, MTH1; test: Microscale thermophoresis (MST) binding assay
Procedure: Microscale thermophoresis method (MST) was employed to assay the binding affinity between the compounds and MTH1. […] The dissociation constant Kd values were automatically calculated by using the NT Analysis software (Nano Temper Technologies, München, Germany).
Recombinant human MTH1 was labeled with the Monolith NT™ Protein Labeling Kit RED (Cat#L001) according to the supplied labeling protocol [32]. Labelled MTH1 was kept constant at 100 nM, while all samples tested were diluted in a 20 mM HEPES (pH 7.5) and 0.05 (v/v) % Tween-20. Compounds were diluted in 12 dilution steps covering the range from 500 μM to 200 nM. After 10 min incubation at room temperature about 37°C, samples were loaded into Monolith™ standard-treated capillaries and the thermophoresis was measured at 25°C after 30 min incubation on a Monolith NT.115 instrument (NanoTemper Technologies, München, Germany). Laser power was set to 20% using 30 seconds on-time. The LED power was set to 100%. The dissociation constant Kd values were fitted by using the NTAnalysis software (NanoTemper Technologies, München, Germany). The Kd value of the binding was obtained in two ways. The first way was calculated by thermophoresis curve when there was no fluorescent change during the initial fluorescence scanning. The second way was calculated from the initial fluorescence scanning curve when compounds bound in the sites which directly interfered the fluorescence.

[10] = Homo sapiens, Ovarian carcinoma cell

C[C@H](Oc1cc(-c2cnn(C3CCNCC3)c2)cnc1N)c1c(Cl)ccc(F)c1Cl [(S)-crizotinib, reference compound]
IC50 [1]: 17.5 ± 1.11 µM
IC50 [2]: 16.7 ± 1.15 µM
IC50 [3]: 32.3 ± 1.28 µM
IC50 [4]: 9.09 ± 1.06 µM
IC50 [5]: 26 ± 1.2 µM

CO[C@@]1(c2cc(O)cc(O)c2)C=C(CCCC(CO)CC/C=C(\C)COC(=O)/C=C/c2ccc(O)cc2)C(=O)O1 (stereo partly drawn) [Compound 2, (5S)-3-{9-[(E)-coumaroyl]-4-hydroxymethyl-8-methyl-7-nonene}-5-(3,5-dihydroxyphenyl)-5-methoxy-2(5H)-furanone]
IC50 ([1]; Homo sapiens, SW-620): 104 ± 1.07 µM
IC50 at 48 h [6]: 260.4 ± 1.16 µM
IC50 (MTH1 [7]): 11 ± 1.03 µM
IC50 ([3]; Homo sapiens, U2OS): 54.2 ± 1.1 µM
IC50 [4, 10]: 76.8 ± 1.09 µM
IC50 at 48 h [8]: > 300 µM
Kd (MTH1 [9]): 2.38 ± 0.663 µM

C/C(=C\CCC(CO)CCCC1=C[C@H](c2cc(O)ccc2O)OC1=O)COC(=O)/C=C/c1ccc(O)cc1 (stereo partly drawn) [Compound 3, (5R)-3-{9-[(E)-coumaroyl]-4-hydroxymethyl-8-methyl-7-nonene}-5-(2,5-dihydroxyphenyl)-2(5H)-furanone]
IC50 ([1]; Homo sapiens, SW-620): 70.9 ± 1.08 µM
IC50 at 48 h [6]: > 300 µM
IC50 (MTH1 [7]): 22.9 ± 1.04 µM
IC50 ([3]; Homo sapiens, U2OS): 73.2 ± 1.24 µM
IC50 [4, 10]: 90.6 ± 1.12 µM
IC50 at 48 h [8]: > 300 µM
Kd (MTH1 [9]): 246 ± 38.7 µM

C/C(=C\CCC(CO)CCCC1=C[C@@H](c2cc(O)ccc2O)OC1=O)COC(=O)/C=C/c1ccc(O)cc1 (stereo partly drawn) [Compound 4, (5S)-3-{9-[(E)-coumaroyl]-4-hydroxymethyl-8-methyl-7-nonene}-5-(2,5-dihydroxyphenyl)-2(5H)-furanone]
IC50 ([1]; Homo sapiens, SW-620): 56.5 ± 1.15 µM
IC50 at 48 h [6]: > 300 µM
IC50 (MTH1 [7]): 22.9 ± 1.07 µM
IC50 ([3]; Homo sapiens, U2OS): 66.4 ± 1.11 µM
IC50 [4, 10]: 64.2 ± 1.28 µM
IC50 at 48 h [8]: 279.1 ± 2.17 µM
Kd (MTH1 [9]): 4.63 ± 0.519 µM

CO[C@]1(c2cc(O)ccc2O)C=C(CCCC(CO)CC/C=C(\C)COC(=O)/C=C/c2ccc(O)cc2)C(=O)O1 (stereo partly drawn) [Compound 5, (5R)-3-{9-[(E)-coumaroyl]-4-hydroxymethyl-8-methyl-7-nonene}-5-(2,5-dihydroxyphenyl)-5-methoxy-2(5H)-furanone]
IC50 at 48 h [6]: > 300 µM
IC50 (MTH1 [7]): 16.3 ± 1.03 µM
IC50 ([3]; Homo sapiens, U2OS): 64.4 ± 1.08 µM
IC50 [4, 10]: 80.1 ± 3.56 µM
IC50 at 48 h [8]: > 300 µM
Kd (MTH1 [9]): 296 ± 13.3 µM

CO[C@@]1(c2cc(O)ccc2O)C=C(CCCC(CO)CC/C=C(\C)COC(=O)/C=C/c2ccc(O)cc2)C(=O)O1 (some centres unmarked) [Compound 6]
IC50 ([1]; Homo sapiens, SW-620): 53.7 ± 1.06 µM
IC50 at 48 h [6]: > 300 µM
IC50 (MTH1 [7]): 8.62 ± 1.03 µM
IC50 ([3]; Homo sapiens, U2OS): 57.8 ± 1.07 µM
IC50 [4, 10]: 37.3 ± 3.56 µM
IC50 at 48 h [8]: > 300 µM
Kd (MTH1 [9]): 113 ± 25.4 µM

CO[C@]1(c2cc(O)cc(O)c2)C=C(CC/C=C(\CO)CC/C=C(\C)COC(=O)/C=C/c2ccc(O)cc2)C(=O)O1 [Compound 7]
IC50 ([1]; Homo sapiens, SW-620): 101 ± 1.07 µM
IC50 at 48 h [6]: > 300 µM
IC50 (MTH1 [7]): 28.5 ± 1.05 µM
IC50 ([3]; Homo sapiens, U2OS): 96.3 ± 1.13 µM
IC50 [4, 10]: 74.5 ± 1.17 µM
IC50 at 48 h [8]: > 300 µM
Kd (MTH1 [9]): 103 ± 32.1 µM

CO[C@@]1(c2cc(O)cc(O)c2)C=C(CC/C=C(\CO)CC/C=C(\C)COC(=O)/C=C/c2ccc(O)cc2)C(=O)O1 [Compound 8]
IC50 ([1]; Homo sapiens, SW-620): 55.2 ± 1.16 µM
IC50 at 48 h [6]: > 300 µM
IC50 (MTH1 [7]): 26.6 ± 1.03 µM
IC50 ([3]; Homo sapiens, U2OS): 95.4 ± 1.05 µM
IC50 [4, 10]: 60.9 ± 1.34 µM
IC50 at 48 h [8]: > 300 µM
Kd (MTH1 [9]): 210 ± 42.7 µM
